In PMC10867575, “Functional validation of novel levamisole resistance marker S168T in Haemonchus contortus” (International Journal for Parasitology: Drugs and Drug …, 2024):
Read-outs that look alike come from different tables or passages of the source.

Test system: T1, Hco-L-AChR-1.1 (UNC-29.1/UNC-38/UNC-63/ACR-8)
T1 construct: cRNAs co-injected in Xenopus laevis oocytes with H. contortus ancillary ric-3.1, unc-50, unc-74; wild-type clones from earlier studies; S168T acr-8 cloned from isolate MHco18 (UGA2004), vector pTB207
Test: two-electrode voltage clamp, Xenopus oocytes
Assay type: cell-based, Haemonchus contortus
Conditions: agonist, 100 mM NaCl, 2.5 mM KCl, 1 mM CaCl2, 5 mM HEPES, pH 7.3, currents normalised to 100 μM ACh
Excerpt: two-electrode voltage clamp, Xenopus oocytes on Hco-L-AChR-1.1 (UNC-29.1/UNC-38/UNC-63/ACR-8)

For `c1ccc([C@H]2CN3CCSC3=N2)cc1` [LEV, levamisole], the EC50 (read-out: LEV EC50) was 3.2 ± 1.1 µM.

Work on `CC(=O)OCC[N+](C)(C)C` [ACh, acetylcholine] yielded an EC50 (read-out: ACh EC50) of 4.2 ± 1.1 µM.
